# Data as given in US20180296683A1, “COMPOSITIONS AND METHODS FOR DISASSEMBLING AMYLOID FIBRILS” (The Board of Trustees of the University of Illinois, priority 2017, published 2018).
# Key:
# Type in all cases: biochemical
# preformed Aβ40 fibrils [1] = molecular target: T1, preformed Aβ40 fibrils (Homo sapiens, UniProt P05067); experiment: ThT fluorescence assay of Aβ40 fibril disassembly; settings: 15 μM Aβ40, PBS pH 7.4, 37° C., 3 days
# T1 construct: Amyloid protein (Aβ40) was purchased from GL Biochem Ltd. (Shanghai, China); purchased GL Biochem Ltd. (Shanghai, China)
# Procedure: ThT fluorescence assays were conducted in 96-well black plate (Thermo Scientific NUNC, catalog NO. 265301) at 37° C. with continuous shaking (567 rpm) in a BioTek Hybrid H1 plate reader. ThT fluorescence was recorded with 10 minutes reading intervals and 5 s shaking before first read (442 nm excitation, 482 nm emission). All samples were run in quadruple or more. At least three independent experiments were carried out for each ThT assay. Each well contained 10 mM PBS buffer solution (pH 7.4) and 20 μM ThT in a total volume of 200 μL. Aβ40 (15 μM, 1.0 equiv), iAβ5, control polymer 5, and mP-iAβ5 conjugates 4 of different molecular weights were added as needed. The concentrations of added samples were calculated based on Aβ40 (15 μM, 1.0 equiv).
# Preparation of Buffered ThT Solution. The ThT solution in 20 mM PBS was freshly prepared before use. […] The concentration of the above solution was determined by UV-Vis at 412 nm (ε=36000 M^−1 cm^−1). Based on the determined concentration of the ThT solution, ultrapure water and 100 mM PBS were further added to dilute the ThT solution to 40 μM in 20 mM PBS, pH 7.4 […]
# To each well of 96-well plate, the buffered ThT solution (40 μM, 100 μL) and ultrapure water (80 μL) were added and mixed. […] The samples containing mature fibrils of Aβ40 and modulators were coincubated for another 3 days in plate reader. The fluorescence was monitored by ThT assays.
# Aβ40 = molecular target: T2, Aβ40 (Homo sapiens, UniProt P05067); experiment: Circular dichroism of Aβ40 secondary structure with fibril breakers; settings: iAβ5 910 μM, 60.7 equiv; Aβ40 15 μM; 3 days
# T2 construct: Amyloid protein (Aβ40) was purchased from GL Biochem Ltd. (Shanghai, China); purchased GL Biochem Ltd. (Shanghai, China)
# Procedure: We used circular dichroism studies to further confirm the secondary structures of disassembled Aβ40 aggregates in the presence of mP-iAβ5 conjugates, PHPMA, or iAβ5. Aβ40 solutions were incubated alone for 24 h to form fibrils. […] As Aβ40 continues to aggregate, the negative peak at 198 nm was converted to the positive peak around 194 nm and a negative peak around 217 nm.
# Fibril breakers (mP-iAβ5 conjugates, PHPMA, or iAβ5) were added to preformed Aβ40 fibrils after 24 h and coincubated for 3 days before the structure characterization by circular dichroism.
# Circular Dichroism (CD) spectroscopy. CD spectra of Aβ40 fibril solution incubated without or with fibril breakers (mP-iAβ5 conjugates, PHPMA, or iAβ5) were recorded in a JASCO J-815 Spectrometer (JASCO Co., Tokyo, Japan), using a quartz cuvette (1 mm path length). […] The spectra were taken as the average of three accumulations from 190 and 260 nm at a speed of 50 nm/min. All of the samples were incubated at 37° C. in 10 mM phosphate buffer solution (PBS) with a continuous agitation speed of 567 rpm. Spectra were calibrated by subtracting the buffer or sample solution baseline.
# preformed Aβ40 fibrils [2] = molecular target: T1, preformed Aβ40 fibrils; experiment: Control incubations with preformed Aβ40 fibrils assessed by AFM and DLS; settings: 3 days of incubation
# Procedure: To evaluate the ability of mP-iAβ5 conjugates to disassemble amyloid fibrils, we conducted experiments in which mP-iAβ5 conjugates were incubated with preformed Aβ40 fibrils. Freshly prepared Aβ40 (15 μM) solutions were preincubated at 37° C. for 24 h, which is sufficiently long for mature fibrils to grow, as evidenced by AFM images and ThT fluorescence assays (FIG. 8). The preformed Aβ40 fibrils solution was then coincubated with 1.0 equiv of mP-iAβ5 conjugates of different molecular weights, and the morphology transformation of the fibril structures was monitored at 37° C. for 3 days by DLS, AFM imaging, and ThT fluorescence (we define an equiv of mP-iAβ5 as the molar ratio of polymer to Aβ40).
# The molecular weight of mP-iAβ5 conjugate that completely disassembles preformed Aβ40 fibrils is 166 kDa. […] The disassembly of preformed fibrils by mP-iAβ5 conjugates was also quantitatively analyzed by DLS in solution phase. In agreement with AFM images, DLS results confirmed that all Aβ40 fibrils were transformed into dispersible sub-100 nm structures, and 0% of fibrils remained after 3 days of incubation (FIG. 2i). […] To investigate the effect of the PHPMA polymer backbone without iAβ5 moieties on Aβ40 disassembly, we incubated preformed Aβ40 fibrils in the presence of 1.0 equiv of 166 kDa PHPMA with and without 60.7 equiv of iAβ5 for 3 days.
# Atomic Force Microscopy (AFM). Samples for AFM studies were taken directly from the ThT assays, and 10 μL of each sample solution was loaded on freshly cleaved mica surface (Electron Microscopy Sciences, catalog NO. 71856-01). Samples were incubated for 5 minutes and rinsed with 5 drops of molecular biology grade water. The mica surface was blow-dried under nitrogen. AFM images were obtained on a MultiMode V (Bruker, Santa Barbara, USA) microscope in tapping mode. Ultrasharp silicon cantilevers (SCANASYST-ATR, Bruker) were used. All of the images were collected at a scan rate of 1 Hz and scan lines of 512.
# Dynamic Light Scattering (DLS). Samples for DLS studies were prepared at the same condition as in ThT assays without adding ThT dye molecules. The DLS studies were carried out using a particle sizer NICOMP 380 ZLS.
# T1 sequence (P05067 672-711 limits assumed): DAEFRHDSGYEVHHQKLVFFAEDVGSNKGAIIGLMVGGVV
# T2 sequence (P05067 672-711 limits assumed): as above
substance,measurement,setting,value
LPFFD [iAβ5],ThT intensity during coincubation with Aβ40 fibrils,preformed Aβ40 fibrils [1],not accompanied by the decreased ThT intensity
same,secondary structure by CD after coincubation with preformed Aβ40 fibrils,Aβ40,remain β-sheet structures
same,effect on preformed fibrils according to AFM and DLS,preformed Aβ40 fibrils [2]; 8.1 equiv of iAβ5 per Aβ40,remained unchanged
same,effect on preformed fibrils according to AFM and DLS,preformed Aβ40 fibrils [2]; 16.7 equiv of iAβ5 per Aβ40,remained unchanged
same,effect on preformed fibrils according to AFM and DLS,preformed Aβ40 fibrils [2]; 32.5 equiv of iAβ5 per Aβ40,remained unchanged
same,effect on preformed fibrils according to AFM and DLS,preformed Aβ40 fibrils [2]; 60.7 equiv of iAβ5 per Aβ40,remained unchanged
same,effect on preformed fibrils according to AFM and DLS,preformed Aβ40 fibrils [2]; 81.3 equiv of iAβ5 per Aβ40,remained unchanged
